Test results reported in patent US20050239733A1, “Sequence requirements for inhibitory oligonucleotides” (Coley Pharmaceutical GmbH, priority 2003, published 2005).

Key:
human TLR8 = molecular target: T1, human TLR8 (Homo sapiens, UniProt Q9NR97); assay: Inhibition of R-848-mediated NF-κB-luciferase activation in hTLR8-LUC-293 cells; type: cell-based; settings: for inhibitory for TLR8: general statement 'found according to the present invention', conditions not given
T1 construct: expressed in transfected cells
T1 sequence (Q9NR97 27-1041): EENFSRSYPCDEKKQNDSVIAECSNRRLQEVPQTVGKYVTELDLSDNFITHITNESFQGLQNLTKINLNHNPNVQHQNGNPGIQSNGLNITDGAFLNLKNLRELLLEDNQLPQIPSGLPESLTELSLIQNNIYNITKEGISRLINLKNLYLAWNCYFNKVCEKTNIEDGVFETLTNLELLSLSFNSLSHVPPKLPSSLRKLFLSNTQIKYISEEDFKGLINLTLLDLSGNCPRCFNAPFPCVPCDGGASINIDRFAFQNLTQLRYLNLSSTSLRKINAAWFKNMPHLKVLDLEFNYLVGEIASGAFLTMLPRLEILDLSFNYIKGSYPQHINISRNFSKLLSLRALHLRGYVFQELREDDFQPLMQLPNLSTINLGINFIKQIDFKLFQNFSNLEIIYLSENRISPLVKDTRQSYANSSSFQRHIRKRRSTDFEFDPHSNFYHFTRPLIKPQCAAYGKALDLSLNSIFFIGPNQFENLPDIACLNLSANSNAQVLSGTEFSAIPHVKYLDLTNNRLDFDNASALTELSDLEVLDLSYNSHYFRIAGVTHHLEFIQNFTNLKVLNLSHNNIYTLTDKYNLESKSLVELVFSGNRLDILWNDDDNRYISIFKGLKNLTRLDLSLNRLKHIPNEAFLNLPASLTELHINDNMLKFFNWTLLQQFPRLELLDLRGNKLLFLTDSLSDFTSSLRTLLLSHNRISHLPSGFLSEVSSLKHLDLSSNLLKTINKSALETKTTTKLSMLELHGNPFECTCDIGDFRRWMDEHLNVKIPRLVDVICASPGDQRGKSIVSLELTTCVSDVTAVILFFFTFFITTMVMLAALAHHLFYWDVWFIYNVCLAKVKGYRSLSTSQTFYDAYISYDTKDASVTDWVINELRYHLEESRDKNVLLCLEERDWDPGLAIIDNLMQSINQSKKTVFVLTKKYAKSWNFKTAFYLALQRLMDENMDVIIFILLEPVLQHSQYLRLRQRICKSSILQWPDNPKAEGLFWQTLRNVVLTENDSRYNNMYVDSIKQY
Method: The previous examples describe the ability of certain inhibitory ODN to inhibit activation of signal transduction mediated by human Toll-like receptor 9 (hTLR9). […] The assay system involved stimulating hTLR8-LUC-293 cells with the TLR8 ligand, R-848 (Resiquimod; Jurk M et al. (2002) Nat Immunol 3:499) in the presence and absence of ODN and comparing the induction of luciferase activity in the absence of ODN to luciferase activity in the presence of ODN.
Cells were assayed for luciferase activity 16 h later. Results were calculated as fold induction above medium background.
Luciferase activity was assayed after 16 h.
hTLR8-LUC-293 cells were incubated with 50 μM R-848 in the presence of increasing concentrations of the following ODN: ODN 2088, D13GT (whererin D is dSpacer), GTN13, N6GTN7, random 15-mer N15, N13GT, and the dinucleotide GT. Luciferase activity was assayed after 16 h. Luciferase activity of R-848 without any ODN was set to 100% (without correction for medium background, i.e. background activity of medium remained at approx. 17%).
Luciferase activity was assayed after 16 h. Luciferase activity of R-848 without any ODN was set to 100% (without correction for medium background, i.e., background activity of medium remained at approx. 17%).
In yet a further set of experiments hTLR8-LUC-293 cells were incubated with 50 μM R-848 in the presence of increasing amounts of different dinucleotides (GT, ODN 603; TG, ODN 688; GG, ODN 689; GU, ODN 690; UG, ODN 691; AT, ODN 692; and TT, ODN 693). Luciferase was assayed after 16 h. Luciferase activity of R-848 without any ODN was set to 100% and remaining R-848-mediated NF-κB activation in the presence of dinucleotides or ODN 2088 was calculated. Medium background was 17% in this set of experiments.
hTLR-LUC-293 cells (expressing the respective humanTLR7, TLR8, or TLR9) were incubated with constant amounts of TLR-agonist (for hTLR7: 2 μM R-848, for hTLR8: 50 μM R-848, and for hTLR9: 0.156 μM CpG ODN 2006) and increasing amounts of TLR-antagonist. […] To compare data for different TLRs, percent remaining activity of agonist was plotted against the log of molar ratio of antagonist to agonist (e.g., for hTLR8: 50 μM R-848 and 5 μM ODN, the plotted ratio is 10^−1). Used ODN concentrations were: for hTLR7 and hTLR8, 5 μM, 0.5 μM, 0.05 μM, and 0.005 μM, and for hTLR9, 2.5 μM, 0.156 μM, 0.0098 μM and 0.00061 μM.

human TLR9 = molecular target: T2, human TLR9 (Homo sapiens, UniProt Q9NR96); assay: Inhibition of CpG ODN 2006-mediated NF-κB-luciferase activation in hTLR9-LUC-293 cells; settings: for Percent 2006 Activity: equimolar 0.156 μM CpG ODN 2006 and inhibitory ODN; for inhibitory for TLR9: general statement 'found according to the present invention', conditions not given; for inhibition of hTLR9 (CpG ODN 2006-mediated luciferase activity), in words: 0.156 μM CpG ODN 2006, increasing ODN, 16 h
T2 sequence (Q9NR96 26-1032): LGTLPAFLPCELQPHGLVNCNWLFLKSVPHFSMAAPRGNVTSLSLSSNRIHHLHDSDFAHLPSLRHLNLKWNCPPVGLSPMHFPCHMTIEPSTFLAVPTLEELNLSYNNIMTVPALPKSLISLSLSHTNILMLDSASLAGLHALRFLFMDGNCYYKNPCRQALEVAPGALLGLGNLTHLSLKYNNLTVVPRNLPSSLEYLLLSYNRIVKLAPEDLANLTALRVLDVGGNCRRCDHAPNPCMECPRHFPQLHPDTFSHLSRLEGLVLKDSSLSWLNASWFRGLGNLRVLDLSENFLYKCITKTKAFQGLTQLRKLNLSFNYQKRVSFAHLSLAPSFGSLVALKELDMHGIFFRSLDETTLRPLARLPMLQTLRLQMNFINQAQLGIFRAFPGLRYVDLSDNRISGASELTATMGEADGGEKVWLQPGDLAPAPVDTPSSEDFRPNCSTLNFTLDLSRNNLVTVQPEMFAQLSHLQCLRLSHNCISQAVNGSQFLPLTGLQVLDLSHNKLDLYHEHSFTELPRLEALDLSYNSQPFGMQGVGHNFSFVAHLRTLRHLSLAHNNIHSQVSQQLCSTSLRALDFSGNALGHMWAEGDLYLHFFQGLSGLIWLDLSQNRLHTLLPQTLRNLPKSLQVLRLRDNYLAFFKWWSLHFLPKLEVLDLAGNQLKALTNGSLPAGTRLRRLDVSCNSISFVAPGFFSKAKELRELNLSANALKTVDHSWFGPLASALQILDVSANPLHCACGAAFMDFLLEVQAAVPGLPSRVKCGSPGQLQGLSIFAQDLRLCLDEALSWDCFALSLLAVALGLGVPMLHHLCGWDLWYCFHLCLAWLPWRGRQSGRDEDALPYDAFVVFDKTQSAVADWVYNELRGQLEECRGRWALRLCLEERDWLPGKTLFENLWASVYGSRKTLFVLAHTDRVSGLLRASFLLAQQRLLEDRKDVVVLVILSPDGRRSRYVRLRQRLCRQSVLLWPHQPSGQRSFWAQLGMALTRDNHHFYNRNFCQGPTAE

[1] = Table 3 (nucleotides flanking 5′ CC, truncations)
[2] = Table 2 (5′ CC replaced by other dinucleotides)
[3] = Table 1 (length b / Spacer 18 variants)

## ACCTGGCGGGGAAGT (DNA, backbone and methylation of C not given here) [ODN 941]
Human TLR8
  inhibitory for TLR8: inhibitory
Human TLR9; [1]
  Percent 2006 Activity: 11%
Human TLR9
  inhibitory for TLR9: inhibitory

## CCCTGGCGGGGAAGT (DNA, backbone and methylation of C not given here) [ODN 942]
Human TLR8
  inhibitory for TLR8: inhibitory
Human TLR9; [1]
  Percent 2006 Activity: 8%
Human TLR9
  inhibitory for TLR9: inhibitory

## CCTCAAGCTTGAGGGG [SEQ ID NO:13]
Human TLR8
  inhibitory for TLR8: not for TLR8
Human TLR9
  inhibitory for TLR9: inhibitory

## CTGGCGGGGAAGT (DNA, backbone and methylation of C not given here) [ODN 962]
Human TLR8; 50 μM R-848, increasing ODN (up to 5 μM), 16 h
  inhibition of hTLR8 (R-848 activity), in words: specific inhibition
Human TLR9; [1]
  Percent 2006 Activity: 122%

## GCCTGGCGGGGAAGT (DNA, backbone and methylation of C not given here) [ODN 940]
Human TLR8
  inhibitory for TLR8: inhibitory
Human TLR9; [1]
  Percent 2006 Activity: 13%
Human TLR9
  inhibitory for TLR9: inhibitory

## NNNNNNNNNNNNNN [ODN 605, reference compound]
Human TLR9
  inhibition of hTLR9 (CpG ODN 2006-mediated luciferase activity), in words: not

## TAATGGCGGGGAAGT (DNA, backbone and methylation of C not given here) [ODN 959]
Human TLR9; [2]
  Percent 2006 Activity: 92%

## TACTGGCGGGGAAGT (DNA, backbone and methylation of C not given here) [ODN 074]
Human TLR9; [2]
  Percent 2006 Activity: 132%

## TAGTGGCGGGGAAGT (DNA, backbone and methylation of C not given here) [ODN 441]
Human TLR9; [2]
  Percent 2006 Activity: 105%

## TATTGGCGGGGAAGT (DNA, backbone and methylation of C not given here) [ODN 442]
Human TLR9; [2]
  Percent 2006 Activity: 101%

## TCATGGCGGGGAAGT (DNA, backbone and methylation of C not given here) [ODN 073]
Human TLR9; [2]
  Percent 2006 Activity: 114%

## TCCAGGCGGGGAAGT (DNA, backbone and methylation of C not given here) [ODN 157]
Human TLR9; [1]
  Percent 2006 Activity: 14%

## TCCCGGCGGGGAAGT (DNA, backbone and methylation of C not given here) [ODN 155]
Human TLR8
  inhibitory for TLR8: inhibitory
Human TLR9; [1]
  Percent 2006 Activity: 11%
Human TLR9
  inhibitory for TLR9: inhibitory

## TCCGGGCGGGGAAGT (DNA, backbone and methylation of C not given here) [ODN 156]
Human TLR8
  inhibitory for TLR8: inhibitory
Human TLR9; [1]
  Percent 2006 Activity: 10%
Human TLR9
  inhibitory for TLR9: inhibitory

## TCCTAGCGGGGAAGT (DNA, backbone and methylation of C not given here) [SEQ ID NO:10]
Human TLR8
  inhibitory for TLR8: inhibitory
Human TLR9
  inhibitory for TLR9: inhibitory

## TCCTAGCGGGGGCGTCCTAT (chemistry not given here) [SEQ ID NO:12]
Human TLR8
  inhibitory for TLR8: not for TLR8
Human TLR9
  inhibitory for TLR9: inhibitory

## TCCTGGCGGGGAA (DNA, backbone and methylation of C not given here) [ODN 969]
Human TLR9
  inhibition of hTLR9 (CpG ODN 2006-mediated luciferase activity), in words: inhibited

## TCCTGLGGGGAAGT (Spacer 18 hexaethyleneglycol spacer, as printed in the source, key not given here) [ODN 493]
Human TLR9; [3]
  Percent 2006 Activity: 54%

## TCCTGLLGGGGAAGT (two Spacer 18 hexaethyleneglycol spacers, as printed in the source, key not given here) [ODN 492]
Human TLR9; [3]
  Percent 2006 Activity: 67%

## TCCTGTGTGTGTGTCGGGGAAGT (listed as DNA, chemistry not given here) [ODN 494]
Human TLR9; [3]
  Percent 2006 Activity: 47%

## TCCTGTGTGTGTGTGTCGGGGAAGT (listed as DNA, chemistry not given here) [ODN 495]
Human TLR9; [3]
  Percent 2006 Activity: 34%

## TCGTGGCGGGGAAGT (DNA, backbone and methylation of C not given here) [ODN 435]
Human TLR9; [2]
  Percent 2006 Activity: 77%

## TCTTGGCGGGGAAGT (DNA, backbone and methylation of C not given here) [ODN 437]
Human TLR9; [2]
  Percent 2006 Activity: 89%

## TGGTGGCGGGGAAGT (DNA, backbone and methylation of C not given here) [ODN 436]
Human TLR9; [2]
  Percent 2006 Activity: 90%

## TTATGGCGGGGAAGT (DNA, backbone and methylation of C not given here) [ODN 439]
Human TLR9; [2]
  Percent 2006 Activity: 91%

## TTCTGGCGGGGAAGT (DNA, backbone and methylation of C not given here) [ODN 440]
Human TLR9; [2]
  Percent 2006 Activity: 90%

## TTGTGGCGGGGAAGT (DNA, backbone and methylation of C not given here) [ODN 438]
Human TLR9; [2]
  Percent 2006 Activity: 95%

## TTTTGGCGGGGAAGT (DNA, backbone and methylation of C not given here) [ODN 072]
Human TLR9; [2]
  Percent 2006 Activity: 121%
